Experimental findings from article PMC5856393, “Synthetic pathways and processes for effective production of 5-hydroxytryptophan and serotonin from glucose in Escherichia coli” (Journal of Biological Engineering, 2018) are described below.

Experiment [1] has as its target T1, TDC (tryptophan decarboxylase) (Catharanthus roseus, UniProt P17770).
T1 construct: expressed in E. coli BL21(DE3) delta-tnaA from pCOLAJ23-TDC; gene from pCOLADuet-GSTdelta37T5H + TDC
The experiment is described as follows: whole-cell bioconversion, HPLC of serotonin. It is filed as cell-based. Particulars: E. coli BL21(DE3) delta-tnaA expressing TDC; pH 6.7, 30 °C.

Experiment [2] has as its target T2, CtAAAH-F (aromatic amino acid hydroxylase W192F) (Cupriavidus taiwanensis, UniProt B3R7Q6, W192F).
T2 construct: gene phhA; engineered W192F parent, expressed in E. coli from pACYCDuet-1 derivatives; tag and purification not described here
The experiment is described as follows: tryptophan hydroxylation assay, Lineweaver-Burk plot. It is filed as biochemical. The conditions noted are these: parent CtAAAH-F (W192F); assay conditions only by citation. The source says:
(§1) tryptophan hydroxylation assay, Lineweaver-Burk plot on CtAAAH-F (aromatic amino acid hydroxylase W192F)

Experiment [3] concerns the target T3, CtAAAH-F (aromatic amino acid hydroxylase W192F) (Cupriavidus taiwanensis, UniProt B3R7Q6, W192F/F197L).
T3 construct: gene phhA; engineered W192F parent, expressed in E. coli from pACYCDuet-1 derivatives; tag and purification not described here
The description is as above. Format: biochemical. Particulars: made in the CtAAAH-F (W192F) background; assay conditions only by citation.
Description: as §1

Experiment [4] has as its target T4, CtAAAH-F (aromatic amino acid hydroxylase W192F) (Cupriavidus taiwanensis, UniProt B3R7Q6, W192F/E219C).
T4 construct: gene phhA; engineered W192F parent, expressed in E. coli from pACYCDuet-1 derivatives; tag and purification not described here
The experiment is described as above. It is filed as biochemical. The conditions noted are these: made in the CtAAAH-F (W192F) background; assay conditions only by citation.
Description: as §1

For experiment [5], the target named is T5, CtAAAH-F (aromatic amino acid hydroxylase W192F) (Cupriavidus taiwanensis, UniProt B3R7Q6, W192F/F197I).
T5 construct: gene phhA; engineered W192F parent, expressed in E. coli from pACYCDuet-1 derivatives; tag and purification not described here
T5 sequence (B3R7Q6 entry or part of it W192F/F197I): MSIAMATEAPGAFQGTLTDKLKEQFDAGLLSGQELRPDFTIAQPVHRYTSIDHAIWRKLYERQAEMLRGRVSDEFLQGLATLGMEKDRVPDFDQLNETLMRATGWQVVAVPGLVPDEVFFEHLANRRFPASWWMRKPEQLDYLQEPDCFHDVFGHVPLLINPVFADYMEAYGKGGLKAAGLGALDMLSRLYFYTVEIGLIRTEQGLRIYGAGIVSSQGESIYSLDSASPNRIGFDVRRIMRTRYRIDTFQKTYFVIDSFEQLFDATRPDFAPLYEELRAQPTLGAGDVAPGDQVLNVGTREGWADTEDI
Described as above. It is filed as biochemical. The conditions noted are these: made in the CtAAAH-F (W192F) background; assay conditions only by citation.
Description: as §1

Experiment [6] deals with T6, CtAAAH-F (aromatic amino acid hydroxylase W192F) (Cupriavidus taiwanensis, UniProt B3R7Q6, W192F/F197L/E219C).
T6 construct: gene phhA; engineered W192F parent, expressed in E. coli from pACYCDuet-1 derivatives; tag and purification not described here
T6 sequence (B3R7Q6 entry or part of it W192F/F197L/E219C): as the sequence (B3R7Q6 entry or part of it W192F/F197I) above, with I197L, E219C counted along it
The experiment is described as above. It is filed as biochemical. Particulars: made in the CtAAAH-F (W192F) background; assay conditions only by citation.
Description: as §1

T4 sequence (B3R7Q6 entry or part of it W192F/E219C): as the sequence (B3R7Q6 entry or part of it W192F/F197I) above, with I197F, E219C counted along it
T1 sequence (P17770 whole entry): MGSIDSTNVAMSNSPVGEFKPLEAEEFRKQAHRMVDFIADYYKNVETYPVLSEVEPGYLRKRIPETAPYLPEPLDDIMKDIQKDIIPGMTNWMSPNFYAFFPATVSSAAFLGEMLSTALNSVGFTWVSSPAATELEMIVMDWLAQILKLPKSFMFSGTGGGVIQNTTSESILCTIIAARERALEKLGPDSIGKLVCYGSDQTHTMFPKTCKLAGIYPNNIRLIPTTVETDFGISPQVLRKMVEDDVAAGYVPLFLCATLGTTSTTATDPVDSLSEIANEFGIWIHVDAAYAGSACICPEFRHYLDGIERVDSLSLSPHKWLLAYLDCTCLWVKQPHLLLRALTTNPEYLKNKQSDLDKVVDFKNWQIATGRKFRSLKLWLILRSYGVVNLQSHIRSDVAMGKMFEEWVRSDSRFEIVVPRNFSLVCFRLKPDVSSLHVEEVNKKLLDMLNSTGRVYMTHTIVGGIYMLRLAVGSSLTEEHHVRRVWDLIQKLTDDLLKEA
T2 sequence (B3R7Q6 entry or part of it W192F): as the sequence (B3R7Q6 entry or part of it W192F/F197I) above, with I197F counted along it
T3 sequence (B3R7Q6 entry or part of it W192F/F197L): as the sequence (B3R7Q6 entry or part of it W192F/F197I) above, with I197L counted along it

For the compound `N[C@@H](Cc1c[nH]c2ccc(O)cc12)C(=O)O` [5HTP], in experiment [1], the “whole-cell bioconversion, HPLC of serotonin” value is “The consumption of 5HTP and serotonin production had a strong correlation”.
As a reminder, the Km is the concentration of substrate that gives half-maximal velocity. For `N[C@@H](Cc1c[nH]c2ccccc12)C(=O)O` [tryptophan], the Michaelis-Menten constant (Km) in experiment [2] was found to be 3000 µM; in experiment [3], 1600 µM; in experiment [4] it was 1800 µM; in experiment [5], 2100 µM; in experiment [6], 950 µM.
